From US20010048964A1, “Low calorie fat compositions” (priority 2000, published 2001)

Experiments:
porcine lipase [1] = biological target: T1, porcine lipase (Sus scrofa, UniProt P00591); test: Hydrolysis by pancreatic lipase, organic solvent system; assay type: in vitro ADME; conditions: organic solvent (t-amyl alcohol), 30° C., 20 h
T1 sequence (P00591 1-450): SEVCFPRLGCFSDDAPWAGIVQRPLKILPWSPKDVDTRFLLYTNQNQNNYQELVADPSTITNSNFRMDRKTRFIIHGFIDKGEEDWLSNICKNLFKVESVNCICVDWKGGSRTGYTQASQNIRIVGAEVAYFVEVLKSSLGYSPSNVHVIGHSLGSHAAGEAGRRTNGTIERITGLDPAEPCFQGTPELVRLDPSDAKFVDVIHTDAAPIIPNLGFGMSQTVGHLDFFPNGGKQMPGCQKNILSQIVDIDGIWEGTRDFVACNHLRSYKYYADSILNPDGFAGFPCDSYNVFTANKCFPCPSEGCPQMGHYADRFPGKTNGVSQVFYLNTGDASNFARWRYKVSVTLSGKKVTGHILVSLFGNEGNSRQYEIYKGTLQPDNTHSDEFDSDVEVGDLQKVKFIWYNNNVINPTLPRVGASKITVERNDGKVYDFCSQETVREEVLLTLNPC
Protocol: (§1) The digestibility of the acylated triglycerides of the present invention were done to compare with triolein. The in-vitro assays were done using two emulsion systems as in the following procedure.
Each digest was carried out with 300 mg of the fat/fat substitute, 9 ml of the t-amyl alcohol, 0.5 ml of Bis-Tris propane buffer (10 mM, pH 7.8) and 0.5 ml of porcine lipase (20 mg/ml). The reaction was incubated at 30° C. and the reaction stopped by adding 1 ml aliquots to 3 ml of isopropanol/heptane/sulfuric acid (40/10/1). The product was extracted with heptane and analyzed by GC and GC-MS at 360° C. The hydrolysis of the acetylated castor (hydrogenated) was 48% complete in 20 h and triolein was hydrolyzed to 69%.

porcine lipase [2] = biological target: T1, porcine lipase; test: Hydrolysis by pancreatic lipase, aqueous emulsion system; assay type: in vitro ADME; conditions: aqueous emulsion (HMPC, sodium cholate), 30 ° C.
Protocol: as §1
A mixture of 300 mg of the fat/fat substitute, 4 ml of Bis-Tris propane buffer (10 mM, pH 7.8), 5 ml of hydroxyproylmethylcellulose (HMPC, […]), 0.5 ml of sodium cholate (0.1M) were sonicated to disperse the fats and incubated at 30 ° C. Porcine lipase (0.5 ml, 20 mg/ml) was added. The analysis of the reaction was carried out as in the above organic solution assay. Acetylated castor (hydrogenated) was 70% hydrolyzed while triolein under similar conditions was 93% hydrolyzed.

[3] = Caloric availability, two week feeding study; assay type: in vivo; conditions: young male Sprague-Dawley rats, modified AIN-76 diet at 15% added fat level
Protocol: Caloric availability of the compounds are evaluated by the two week feeding study of young male Sprague-Dawley rats weighing approximately 50 to 60 gm. This caloric availability study as described described by Finley, et al. ((1994) J. Agric. Food Chem. 42:489-494) was modified to use smaller amounts of test materials. The feeding study was conducted using a modified AIN-76 diet at 15% added fat level and five test animals are used for each compound. Weight gains are monitored at days 0,3,7,10 and 14.

hydrolysis (porcine lipase [1]) [%]	hydrolyzed (porcine lipase [2]) [%]	SMILES	caloric availability [3] [kcal/g]
48	70	CCCCCCC(CCCCCCCCCCC(=O)OCC(COC(=O)CCCCCCCCCCC(CCCCCC)OC(C)=O)OC(=O)CCCCCCCCCCC(CCCCCC)OC(C)=O)OC(C)=O (stereo not shown) [acetylated castor (hydrogenated), 12-acetyloxyoctadecanoic acid triglyceride]	6
–	–	CCCCCCCCCCCCCCCCCC(=O)OC(CCCCCC)CCCCCCCCCCCCC(=O)OCC(COC(=O)CCCCCCCCCCCCC(CCCCCC)OC(=O)CCCCCCCCCCCCCCCCC)OC(=O)CCCCCCCCCCCCCCCCC (stereo not shown) [distearoyl lesquerella oil-hydrogenated, 1,3-bis(14-octadecanoyloxy)eicosanoic acid-2-octadecanoic acid triglyceride]	5.6
